System: Plasmodium falciparum
Experiment: GSK_TCMDC: Inhibition of Plasmodium falciparum 3D7 in whole erythrocytes, using parasite LDH activity as an index of growth.
Format: functional, organism-based
Conditions: Plasmodium falciparum, 3D7

Compound	XC50
CCN(CC)CCN(Cc1ccc(-c2ccc(C(F)(F)F)cc2)cc1)C(=O)Cn1c(CCc2cccc(F)c2F)nc(=O)c2sccc21	905 nM
O=C(Nc1cccc(-c2cccc(-c3nc4ccccc4[nH]3)c2)c1)c1ccoc1	741 nM
COc1ccc(F)cc1-c1csc(N(c2ccc(F)cc2)C2CCNCC2)n1	1210 nM
Cc1cccc2nc(-c3ccc(-c4ccc(NC(=O)Nc5cccc(C#N)c5)cc4)cc3)[nH]c12	114 nM
COc1ccc2c(=NN=Cc3ccccc3F)cc(C)[nH]c2c1	997 nM
CN(CCO)Cc1ccc(-c2ccc(NS(=O)(=O)c3cccc4cccnc34)cc2)cc1	795 nM
Cc1ccc(S(=O)(=O)N2CCN(C(=O)c3cc(-c4ccccc4)n[nH]3)CC2)cc1	603 nM
CCNc1cc(C(=O)N[C@@H](Cc2ccco2)[C@H](O)CNC2CCCCC2)cc(N2CCCCS2(=O)=O)c1	1010 nM
COc1ccc(Cl)cc1N1CCN(CCCNC(=O)c2ccc(-c3nc4cc(Cl)c(C)cc4[nH]3)c(F)c2)CC1	185 nM
CCCCCCN1CCCN(Cc2ccc(C(=O)Nc3ccc(CC)cc3)cc2)CC1	756 nM
COc1ccc(OC)c(CC2c3ccc(Br)c(O)c3CCN2C)c1 (centres undefined)	754 nM
CC(C)C(NC(=O)c1c(F)cccc1F)C(=O)Nc1ccc(Cc2nc3ccccc3s2)cc1 (centres undefined)	448 nM
Cc1cnc2ccc(NS(=O)(=O)c3ccc4c(Cl)cccc4c3)cc2c1N1CCNCC1	751 nM
COc1cc(C(=O)NC2CCC(CN3CCC(c4c[nH]c5ccccc45)CC3)CC2)cc(Cl)n1 (centres undefined)	688 nM
Clc1ccc2c(NCCCCCCCCNc3ccnc4cc(Cl)ccc34)ccnc2c1	482 nM
CN1CCN(c2cccc(NC(=O)c3ccc(-c4ccc(C#N)cc4)cc3)c2)CC1	1260 nM
Fc1cc(Cl)ccc1Nc1ccnc(Nc2ccc3cn[nH]c3c2)n1	737 nM
Cc1noc(C)c1-c1cccc(CNCc2cccc(-c3ccc(-c4nc5cccc(C)c5[nH]4)cc3)c2)c1	191 nM
CCN(CC)CCCNc1c2ccccc2nc2ccccc12	753 nM
O=C(Nc1cccc(-c2ccc(-c3nc4cc(C(F)(F)F)ccc4[nH]3)cc2)c1)c1ccncc1	337 nM
CCCN1CCC2(CC1)NC(C(=O)NCCC(C)C)Cc1c2[nH]c2cc(Cl)ccc12 (centres undefined)	1380 nM
CC(=O)Nc1ccc(CN2CCC(NC(=O)c3ccc(-c4cccc(F)c4)s3)CC2)cc1	1430 nM
CCC(Cc1cnc2nc(N)nc(N)c2n1)c1ccc(C(=O)N[C@@H](CCC(=O)O)C(=O)O)cc1 (some centres undefined) [EDATREXATE]	36.7 nM
Oc1ccc2c(c1CNC1CCCCC1)CCCC2	938 nM
CCNc1cc(C(=O)N[C@@H](Cc2ccccc2)[C@H](O)CNC2(C(C)C)CCC2)cc(N2CCCCS2(=O)=O)c1	685 nM

Compound	XC50
CCc1ccccc1NC(=O)CN1CCN(c2ncnc3scc(-c4ccc(F)cc4)c23)CC1	702 nM
CCCCCCCc1ccc(-c2c(C)[nH]c(C)c(Cl)c2=O)cn1	361 nM
CCCCN(C)CC#Cc1ccc2[nH]c(C)c(Cl)c(=O)c2c1	130 nM
O=C(Nc1ccc(Cl)cc1)Nc1ccc2nonc2c1	1100 nM
CC(C)c1sc(N2CCN(C)CC2)nc1C(=O)NCCc1cccc(Cl)c1	1490 nM
CCn1c(SCc2ccccc2)nc2c1c(=O)[nH]c(=O)n2C	241 nM
O=C(/C=C/c1ccc(Cl)c(Cl)c1)NCCCCCN1CCC(C(=O)Nc2ccc3c(c2)OCO3)CC1	839 nM
Cc1ccc2[nH]c(C3CCCNC3)c(-c3ccncc3)c2c1 (centres undefined)	1230 nM
CCCCCCN1CCCN(Cc2ccc(C(=O)Nc3ccc(C)c(F)c3)cc2)CC1	331 nM
c1ccc(CCNCc2ccc(-c3ccc(CNc4ccc5ncccc5c4)cc3)cc2)cc1	916 nM
Nc1nc(N)c2c(ccc3[nH]ccc32)n1	1080 nM
Cc1cc(OCCCNC(=N)c2ccc3ccccc3c2)c(C(C)C)cc1Cl	973 nM
NC1=NC(c2ccccc2)(c2ccccc2)C(=O)N1CCCCc1ccccn1	1260 nM
Cc1cccc(CNc2ncc(C)c(NCCC(=O)Nc3ccccc3)n2)c1	1150 nM
Cc1nc(-c2cccc(Nc3nccc(NCC(O)c4ccccc4C(F)(F)F)n3)c2)cs1 (centres undefined)	834 nM
O=C(Nc1ccc(OC2CCN(Cc3ccc(F)cc3)C2)c(Cl)c1)c1ccsc1 (centres undefined)	538 nM
Cc1ccccc1OCC(O)CNC1CCC(NCC(O)COc2ccccc2C)CC1 (centres undefined)	1190 nM
CCCCCCCc1c2c(C)c(C(=O)OCC)nc-2cc2n1CC(C)=C2C	1140 nM
O=C(NCCCCCN1CCC(c2c[nH]c3ccccc23)CC1)Nc1ccc(I)c(Cl)c1	969 nM
CC(Cc1ccc(OCc2ccccc2)cc1)Nc1nc(O)c2ccccc2n1 (centres undefined)	568 nM
FC(F)(F)c1ccc(NC(=S)N2CCC(CCN3CCC(c4c[nH]c5ccccc45)CC3)CC2)cc1	885 nM
COc1ccc(Br)cc1/C=C/C(=O)Nc1ccc2c(c1)CCCN(C)C2	1560 nM
COC(=O)c1cccc(NC(=O)NCCNc2ccnc(Nc3ccc(F)cc3)n2)c1	837 nM
CC(Cc1ccc(OCC(=O)NCC2CCN(CCc3cccc(Cl)c3)CC2)cc1)NCCc1cccc(Cl)c1 (centres undefined)	663 nM
CC(=O)Nc1nc(N)c2c(ccc3c2ccn3CC(C)C)n1	69.6 nM

Compound	XC50
CCCCNC[C@@H](O)[C@H](Cc1ccccc1)NC(=O)c1cc2c3c(c1)c(CC)cn3CCS(=O)(=O)N2C	196 nM
C=C[C@H]1CN(CCCCCCC)CC[C@H]1CC(=O)Nc1cnnc2ccc(OC)cc12	529 nM
Cc1nnsc1C(=O)Nc1cccc(-c2ccc(-c3nc4ccccc4[nH]3)s2)c1	885 nM
CCNc1cc(C)nc(Nc2ccc(NC(=O)c3ccco3)cc2)n1	1090 nM
CC[C@H]1C[N+]2([O-])CC[C@@H]1C[C@H]2[C@H](O)c1cc(-c2ccccc2)nc2ccc(OC)cc12	840 nM
Cc1cc(NC(=O)c2coc3cc(F)c(N4CC(C)N(C)C(C)C4)cc23)ccc1-n1ccnc1 (centres undefined)	841 nM
CCn1ncc(Cl)c1CN(C)S(=O)(=O)c1ccc(Br)cc1	1020 nM
COc1ccc(-c2cnc3ccc(NCc4ccc(S(N)(=O)=O)cc4)nn23)cc1	796 nM
O=C(N[C@H]1CCN(Cc2ccc(OC3CCN(Cc4ccccc4)CC3)c(Cl)c2)C1)c1ccc(Cl)c(Cl)c1	814 nM
Cc1nc(N)nc(N)c1OCCCOc1ccccc1Br	4.1 nM
COc1cc(NC(=O)N2CCc3ccc(OCCN4CCCCC4)cc32)cc(C(F)(F)F)c1	266 nM
CCCNCCc1ccc(NS(=O)(=O)c2cccc(-c3ccc(Cl)cc3)c2)cc1	975 nM
CCOc1ccc(-c2noc(-c3c[nH]c4ccccc4c3=O)n2)cc1	205 nM
COc1ccc(Oc2ccc(-c3c(C)[nH]c(C)c(Cl)c3=O)cc2)cc1	135 nM
COc1c(OC)c(OC)c2ccccc2c1CCNCCCCNCCc1c(OC)c(OC)c(OC)c2ccccc12	612 nM
CN1C(C)(C)CC(NC(=O)c2ccc(-c3nc4cc(Cl)ccc4[nH]3)cc2)CC1(C)C	991 nM
OC(CNc1ccnc(Nc2ccccc2)n1)c1cccc(C(F)(F)F)c1 (centres undefined)	646 nM
COC1(C)Oc2ccc3cccc([N+](=O)[O-])c3c2C1=O (centres undefined)	635 nM
COc1ccc(CNC2CCN(c3ccc(NC(=O)c4cccc(Cl)c4)cc3)CC2)cc1OC	1020 nM
Cc1cc(C)c(NC(=O)NC2CCN(CCCCCNC(=O)/C=C/c3ccc(Cl)c(Cl)c3)CC2)c(C)c1	797 nM
CCN(CC)C(=O)c1cccc(C=Cc2ccc(-c3c(C)[nH]c(C)c(Cl)c3=O)cc2)c1	259 nM
Cc1cccc2nc(-c3cccc(-c4ccc(NC(=O)Cc5c[nH]cn5)cc4)c3)[nH]c12	688 nM
O=C(CNC1=NCCN1)Nc1ccc(NC(=O)Nc2ccc(NC(=O)CNC3=NCCN3)cc2)cc1	781 nM
COc1ccc(N2CCN(CCCN3CCN(C(=O)c4ccc(/C=C/c5ccc(Cl)c(Cl)c5)cc4)CC3)CC2)c(OC)c1	907 nM
CCN1CCN(C(=O)NC(C(=O)N(C)Cc2ccc(-c3ccc(C(F)(F)F)cc3)cc2)c2cccs2)C(=O)C1=O (centres undefined)	356 nM

Compound	XC50
O=C(NCc1cccc(F)c1)Nc1ccc(-c2ccc(-c3nc4cc(C(F)(F)F)ccc4[nH]3)cc2)cc1	769 nM
O=C(Nc1cccc(-c2cccc(-c3nc4cc(F)ccc4[nH]3)c2)c1)c1csnn1	788 nM
COc1ccc2nccc([C@@H](O)CN3CCC(NCc4cc5cc(C)ccc5s4)CC3)c2c1	636 nM
CC(C)NC[C@@H](O)[C@H](Cc1ccccc1)NC(=O)c1cc2c3c(c1)c(C(C)C)cn3CCS(=O)(=O)N2C	179 nM
Nc1ccnc2ccc(NC(=O)CCCCCc3ccccc3)cc12	860 nM
Cc1cc(=NN=Cc2ccccc2F)c2cc(F)ccc2[nH]1	299 nM
CN1CCN(CCCN(Cc2cccc(-c3ccc(CNCc4ccc5c(c4)OCO5)cc3)c2)C(=O)Nc2ccccc2)CC1	681 nM
CCCCCN1CCCN(Cc2cccc(NC(=O)c3ccc4ccccc4c3)c2)CC1	1220 nM
COc1ccc(C(=O)Nc2ccc(-c3nc4cc(C)ccc4[nH]3)cc2)cc1OC	761 nM
CCNC(=O)CCc1cccc(Br)c1	533 nM
CNC(=O)CC(=O)NCCc1ccc(Cl)cc1	811 nM
Cc1nc(-c2ccc(-c3ccc(C(=O)Nc4ccc(-n5ccnc5)c(N5CCN(C)CC5)c4)cc3)c(C)c2)no1	834 nM
Cc1cc(N[C@@H](Cc2ccccc2)C(=O)NCCOc2ccccc2)nc(NCc2ccccc2C)n1	711 nM
CN1CCC(N(Cc2ccc(-c3ccc(C(F)(F)F)cc3)nc2)C(=O)Cn2c(CCc3cccc(F)c3F)cc(=O)c3ccccc32)CC1	1100 nM
N#Cc1cc([N+](=O)[O-])ccc1-n1nc(C(N)=O)n(Cc2cccc(F)c2)c1=S	721 nM
CC(C)CCNC(=O)C1Cc2c([nH]c3cc(Cl)ccc23)C2(CCN(CCc3ccccc3)CC2)N1 (centres undefined)	690 nM
CCOCCCNc1sc(S(=O)(=O)c2ccccc2)nc1S(=O)(=O)c1ccc(C)cc1	809 nM
Cc1cc(N2CCCC2)nc(Nc2ccc(NC(=O)CC(C)C)cc2)n1	841 nM
Cc1cc(N2CCCC2)nc(Nc2ccc(NC(=O)C(C)C)cc2)n1	1100 nM
COc1ccc(NC(=O)NC2CCN(CCCOc3cc(C)nc4ccccc34)CC2)cc1OC	1280 nM
Cc1[nH]c2c(C)cccc2c1C1CCN(CCC2CCN(C(=O)/C=C/c3ccc(Cl)c(Cl)c3)CC2)CC1	636 nM
COc1cc(-c2nc(-c3ccc([N+](=O)[O-])cc3)c(-c3ccccc3)[nH]2)cc(OC)c1O	830 nM
COc1cccc(-n2ncc3c(N/N=C/c4ccc(CN(C)CCN(C)C)cc4)ncnc32)c1	893 nM
O=C(Nc1ccc(-c2ccccc2)cc1)Nc1cccc(Cn2ncc(N3CCNCC3)c(Cl)c2=O)c1	456 nM

Reference: ChEMBL document CHEMBL1157539, “Thousands of chemical starting points for antimalarial lead identification” (Nature, 2010)
